Assay results: ChEMBL document CHEMBL3603805, “Novel metal chelating molecules with anticancer activity. Striking effect of the imidazole substitution of the histidine-pyridine-histidine system” (Bioorg Med Chem, 2015)
Activity calls are given as the source filed them. The calls are words filed in the database; no cut-off is given here.

Key:
Escherichia coli = assay: Induction of DNA cleavage in Escherichia coli supercoiled pUC19 DNA assessed as formation of nicked form II DNA using FeSO4 at 30 uM after 1.5 hrs by agarose-gel electrophoresis
U-87MG ATCC = assay: Cytotoxicity against human U87 cells at 10 uM after 24 hrs by MTT assay; type: functional, cell-based
ASPC1 = assay: Cytotoxicity against human AsPC1 cells at 10 uM after 24 hrs by MTT assay; type: functional, cell-based
U-251 = assay: Cytotoxicity against human U251 cells at 10 uM after 24 hrs by MTT assay; type: functional, cell-based
[1] = Stability of the compound under physiological condition; type: physicochemical

SMILES | Activity (Escherichia coli) | Activity (U-87MG ATCC) | Activity (ASPC1) | Activity (U-251) | Stability [1]
COC(=O)[C@H](Cc1c[nH]cn1)NCc1cc(N(C)C)cc(CN[C@@H](Cc2c[nH]cn2)C(=O)OC)n1 | Active | inactive | inactive | inactive | 
COC(=O)[C@H](Cc1c[nH]cn1)NCc1cc(N(C)C)cc(CN[C@@H](Cc2cn(C)cn2)C(=O)OC)n1 | Active | inactive | inactive | inactive | 
COC(=O)[C@H](Cc1c[nH]cn1)NCc1cc(N(C)C)cc(CN[C@@H](Cc2cn(C(c3ccccc3)(c3ccccc3)c3ccccc3)cn2)C(=O)OC)n1 | Active | Active | Active | Active | Stable
COC(=O)[C@H](Cc1cn(C)cn1)NCc1cc(N(C)C)cc(CN[C@@H](Cc2cn(C)cn2)C(=O)OC)n1 | Active | inactive | inactive | inactive | 
COC(=O)[C@H](Cc1cn(Cc2ccccc2)cn1)NCc1cc(N(C)C)cc(CN[C@@H](Cc2cn(Cc3ccccc3)cn2)C(=O)OC)n1 | Active | inactive | inactive | inactive | 
COC(=O)[C@H](Cc1cn(C(c2ccccc2)(c2ccccc2)c2ccccc2)cn1)NCc1cc(N(C)C)cc(CN[C@@H](Cc2cn(C(c3ccccc3)(c3ccccc3)c3ccccc3)cn2)C(=O)OC)n1 | Active | Active | Active | Active | Stable
